pIC50: −log10 of the molar value.
test system: Bmi-1; experiment: Sandwich ELISA Assay (Bmi-1 ELISA in HT-1080 cells); format: cell-based, human
Outline: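 HT-1080 cells (8000/well) were treated with compounds in 0.5% final DMSO for 40-48 h at 37°C and then lysed. Bmi-1 in lysates was measured by sandwich ELISA: overnight capture at 4°C on mouse monoclonal, rabbit anti-Bmi-1 detection, HRP anti-rabbit, TMB. OD450 was read with an OD570 reference against a recombinant GST-Bmi-1 standard curve (0-8000 pg/mL).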

Structure (SMILES) | pIC50
COc1ccc(N(C)c2nccc(-c3c(C)nc4ncccn34)n2)cc1 [Cpd 47, N-(4-methoxyphenyl)-N-methyl-4-(2-methylimidazo[1,2-a]pyrimidin-3-yl)pyrimidin-2-amine] | > 6.30
Cc1nc2c(C)cccn2c1-c1csc(Nc2ccc(N(C)C)cc2)n1 [Cpd 221, N′-[4-(2,8-dimethylimidazo[1,2-a]pyridin-3-yl)-1,3-thiazol-2-yl]-N,N-dimethylbenzene-1,4-diamine] | > 6.30
Cc1ccc(Nc2nc(-c3c(C)nc4c(Br)cccn34)cs2)cc1 [Cpd 229, 4-(8-bromo-2-methylimidazo[1,2-a]pyridin-3-yl)-N-(4-methylphenyl)-1,3-thiazol-2-amine] | > 6.30
Cc1ccc(Nc2nc(-c3c(C)nc4ccc(Cl)cn34)cs2)c(C)c1 [Cpd 214, 4-(6-chloro-2-methylimidazo[1,2-a]pyridin-3-yl)-N-(2,4-dimethylphenyl)-1,3-thiazol-2-amine] | > 6.30
Cc1nc2ccc(Cl)cn2c1-c1csc(Nc2ccc(Br)cc2)n1 [Cpd 61, N-(4-bromophenyl)-4-(6-chloro-2-methylimidazo[1,2-a]pyridin-3-yl)-1,3-thiazol-2-amine] | > 6.30
CCN(CC)c1ccc(Nc2nc(-c3c(C)nc4ccc(Cl)cn34)cs2)cc1 [Cpd 206, N′-[4-(6-chloro-2-methylimidazo[1,2-a]pyridin-3-yl)-1,3-thiazol-2-yl]-N,N-diethylbenzene-1,4-diamine] | > 6.30
Cc1nc2ncccn2c1-c1csc(Nc2ccc3c(c2)OCO3)n1 [Cpd 37, N-(1,3-benzodioxol-5-yl)-4-(2-methylimidazo[1,2-a]pyrimidin-3-yl)-1,3-thiazol-2-amine] | > 6.30

Second part, the compound after the results:

pIC50 | Structure (SMILES)
> 6.30 | COc1ccc(Nc2nc(-c3c(C)nc4ccccn34)cs2)cc1Cl [Cpd 50, N-(3-chloro-4-methoxyphenyl)-4-(2-methylimidazo[1,2-a]pyridin-3-yl)-1,3-thiazol-2-amine]
> 6.30 | Cc1nc2ncccn2c1-c1ccnc(N(C)c2ccccc2Cl)n1 [Cpd 140, N-(2-chlorophenyl)-N-methyl-4-(2-methylimidazo[1,2-a]pyrimidin-3-yl)pyrimidin-2-amine]
> 6.30 | Cc1nc2cc(Cl)ccn2c1-c1csc(Nc2ccc(N(C)C)cc2)n1 [Cpd 242, N′-[4-(7-chloro-2-methylimidazo[1,2-a]pyridin-3-yl)-1,3-thiazol-2-yl]-N,N-dimethylbenzene-1,4-diamine]
> 6.30 | Fc1ccccc1Nc1nccc(-c2cnc3ccccn23)n1 [Cpd 166, N-(2-fluorophenyl)-4-(imidazo[1,2-a]pyridin-3-yl)pyrimidin-2-amine]
> 6.30 | Clc1cccc(Nc2nccc(-c3cnc4ccccn34)n2)c1 [Cpd 246, N-(3-chlorophenyl)-4-(imidazo[1,2-a]pyridin-3-yl)pyrimidin-2-amine]
> 6.30 | CCOc1ccc(Nc2nccc(-c3cnc4ncccn34)n2)cc1 [Cpd 262, N-(4-ethoxyphenyl)-4-(imidazo[1,2-a]pyrimidin-3-yl)pyrimidin-2-amine]
> 6.30 | CCc1ccc(Nc2nc(-c3c(C)nc4ccc(Cl)cn34)cs2)cc1 [Cpd 90, 4-(6-chloro-2-methylimidazo[1,2-a]pyridin-3-yl)-N-(4-ethylphenyl)-1,3-thiazol-2-amine]
> 6.30 | CCN(CC)c1ccc(Nc2nccc(-c3c(C)nc4ccccn34)n2)cc1 [Cpd 130, N,N-diethyl-N′-[4-(2-methylimidazo[1,2-a]pyridin-3-yl)pyrimidin-2-yl]benzene-1,4-diamine]
> 6.30 | COc1cccc(Nc2nccc(-c3cnc4ncccn34)n2)c1 [Cpd 260, 4-(imidazo[1,2-a]pyrimidin-3-yl)-N-(3-methoxyphenyl)pyrimidin-2-amine]

— US8680113B2, “BMI-1 protein expression modulators” (PTC Therapeutics, Inc., priority 2008, dated 2014)
